Assay results published in patent US11806428B2 (HARM REDUCTION THERAPEUTICS, INC., priority 2011, dated 2023).

What was measured:
[1] = Safety assessment (adverse events, clinical laboratory results, vital signs, ECGs) in the 4-way crossover study; assay type: in vivo, human
[2] = Prediction of naloxone plasma concentrations with Excel: non-compartmental analysis on mean profiles scaled to the proposed doses; design: species or system human
[3] = Prediction of naloxone plasma concentrations with WinNonlin Modeling: compartmental pharmacokinetic model and simulation; design: species or system human; details: 36 h
Method: The corresponding C max and AUCt-values are as follows (for the total time period of 36 h): […]

[4] = intranasal administration
[5] = oral administration; cited from earlier work
clinical = details: both, human, plasma
[6] = another subject, Day 44, normal before study drug, rated possibly related
[7] = predicted for 0.4 mg IV, based on 1 mg IV data excluding the outlying subject
[8] = predicted for 0.4 mg IV, based on 1 mg IV data, all subjects
[9] = predicted for 1.2 mg IN, based on 8 mg IN data
[10] = predicted for 1.2 mg IN, based on 16 mg IN data
[11] = predicted for 1.6 mg IN, based on 8 mg IN data
[12] = predicted for 1.6 mg IN, based on 16 mg IN data

In the case of `C=CCN1CC[C@]23c4c5ccc(O)c4O[C@H]2C(=O)CC[C@@]3(O)[C@H]1C5` [naloxone], the “treatment-emergent adverse events (TEAEs)” value ([1]; 1 mg intravenous) is reported as 4 TEAEs, the “treatment-emergent adverse events (TEAEs)” value ([1]; 8 mg intranasal) is reported as 3 TEAEs and the “treatment-emergent adverse events (TEAEs)” value ([1]; 16 mg intranasal) is reported as 5 TEAEs. For the same compound, the “treatment-emergent adverse events (TEAEs)” value ([1]; 16 mg sublingual) was 1 TEAE, the “changes in ECG” value ([1]; all treatments) was “No clinically relevant changes in ECG occurred” and the “deaths, serious adverse events, other significant adverse events” value ([1]; all treatments) was “no deaths, serious adverse events, or other significant adverse events”. For the same compound, the “markedly abnormal change in blood pressure” value ([1]; all treatments) was “one subject”, the “markedly abnormal changes in pulse rate” value ([1]; all treatments) was “Three subjects” and the “overall trend in abnormal vital sign changes” value ([1]; all treatments) was “No overall trend in abnormal vital sign changes was observed”. The “markedly abnormal high SGPT value” [1, 6] was 371 U/l, the “markedly abnormal high total bilirubin value” [1, 6] was 39.33 µmol/L and the “markedly abnormal low potassium value” [1, 6] was 3.3 mmol/L. The “TEAEs of vasovagal attack” value ([1]; intranasal application (one after 8 mg, one after 16 mg)) was 2 subjects, the “TEAEs of vasovagal attack” value ([1]; intravenous bolus 1 mg) was 1 subject and the “markedly abnormal high triglyceride value” ([1]; one subject, Day 44, 4.189 mmol/l on Day -9 before study drug) was 8.355 mmol/L. The AUCt [2, 7] was 3.8122 ng·h/mL, the Cmax [2, 7] was 2.8817 ng/mL and the AUCt [2, 8] was 4.5789 ng·h/mL. For the same compound, the Cmax [2, 8] was 4.7352 ng/mL, the AUCt [2, 9] was 3.1596 ng·h/mL and the Cmax [2, 9] was 1.5352 ng/mL. It also gave an AUCt [2, 10] of 2.585 ng·h/mL, a Cmax [2, 10] of 1.0525 ng/mL and an AUCt [2, 11] of 4.2128 ng·h/mL. It also gave a Cmax [2, 11] of 2.0469 ng/mL, an AUCt [2, 12] of 3.4467 ng·h/mL and a Cmax [2, 12] of 1.4034 ng/mL. It also gave an AUCt [3, 9] of 2.8762 ng·h/mL, a Cmax [3, 9] of 1.5995 ng/mL and an AUCt [3, 10] of 2.1631 ng·h/mL. It also gave a Cmax [3, 10] of 0.8935 ng/mL, an AUCt [3, 11] of 3.835 ng·h/mL and a Cmax [3, 11] of 2.1326 ng/mL. For the same compound, the AUCt [3, 12] was 2.8841 ng·h/mL, the Cmax [3, 12] was 1.1913 ng/mL and the “peak plasma concentrations attained as early as (time after dosing)” value ([4]; earliest) was 6 min. For the same compound, the “time to peak plasma concentrations, median” value ([4]; median) was 18 min, the oral bioavailability [5] was < 3% and the bioavailability (clinical; other: intranasal, 8 mg) was 32%. For the same compound, the bioavailability (clinical; other: intranasal, 16 mg) was 27% and the bioavailability (clinical; other: sublingual, 16 mg) was ~2%.
